# In publication PMC5218480 (PLoS ONE, 2017):
# Tested on: MV-4-11 cells
# Experiment: Gene expression microarray analysis (Affymetrix PrimeView) and GSEA
# Type: cell-based, human
# Design: RFU PODN (11730768_x_at) / Fold change /veh PODN (11730768_x_at) / RFU LINC00158 (11744669_a_at) / Fold change /veh LINC00158 (11744669_a_at) / RFU DUSP10 (11751237_a_at) / Fold change /veh DUSP10 (11751237_a_at) / RFU ID3 (11757404_x_at) / Fold change /veh ID3 (11757404_x_at) / RFU PLEKHG5 (11737974_s_at) / Fold change /veh PLEKHG5 (11737974_s_at) / RFU LRRC4B (11730491_at) / Fold change /veh LRRC4B (11730491_at) / RFU GIMAP4 (11747438_a_at) / Fold change /veh GIMAP4 (11747438_a_at) / RFU KRT8 (11758183_x_at) / Fold change /veh KRT8 (11758183_x_at) / RFU CNN1 (11734310_a_at) / Fold change /veh CNN1 (11734310_a_at) / RFU VPS37D (11726825_at) / Fold change /veh VPS37D (11726825_at) / RFU C10orf10 (11716522_x_at) / Fold change /veh C10orf10 (11716522_x_at) / RFU KIR2DL2 /// KIR2DL4 /// KIR2DL5A /// KIR2DL5B /// KIR2DS1 /// KIR2DS2 /// KIR2DS3 /// KIR2DS4 /// KIR3DL3 /// KIR3DL3 /// KIR3DS1 (11738374_at) / Fold change /veh KIR2DL2 /// KIR2DL4 /// KIR2DL5A /// KIR2DL5B /// KIR2DS1 /// KIR2DS2 /// KIR2DS3 /// KIR2DS4 /// KIR3DL3 /// KIR3DL3 /// KIR3DS1 (11738374_at) / RFU C1QL1 (11718748_at) / Fold change /veh C1QL1 (11718748_at) / RFU TMPRSS4 (11747572_a_at) / Fold change /veh TMPRSS4 (11747572_a_at) / RFU HAMP (11756126_x_at) / Fold change /veh HAMP (11756126_x_at) / RFU RNFT2 (11725882_a_at) / Fold change /veh RNFT2 (11725882_a_at) / RFU NR4A2 (11747474_a_at) / Fold change /veh NR4A2 (11747474_a_at) / RFU ABCC12 (11746883_a_at) / Fold change /veh ABCC12 (11746883_a_at) / RFU TMEM136 (11760407_x_at) / Fold change /veh TMEM136 (11760407_x_at) / RFU CLDN22 /// WWC2 (11732394_at) / Fold change /veh CLDN22 /// WWC2 (11732394_at) / RFU HLA-DPB1 (11760878_x_at) / Fold change /veh HLA-DPB1 (11760878_x_at) / RFU SPINT1 (11716480_a_at) / Fold change /veh SPINT1 (11716480_a_at) / RFU GAP43 (11754022_s_at) / Fold change /veh GAP43 (11754022_s_at) / RFU A4GNT (11735810_at) / Fold change /veh A4GNT (11735810_at) / RFU PRB3 (11715151_x_at) / Fold change /veh PRB3 (11715151_x_at) / RFU TUBB4B (11761932_at) / Fold change /veh TUBB4B (11761932_at) / RFU CAPN14 (11732068_a_at) / Fold change /veh CAPN14 (11732068_a_at) / RFU TMCC2 (11721928_a_at) / Fold change /veh TMCC2 (11721928_a_at) / RFU IRGQ (11745062_a_at) / Fold change /veh IRGQ (11745062_a_at) / RFU FAM174B (11720279_a_at) / Fold change /veh FAM174B (11720279_a_at) / RFU TMPRSS4 (11748680_a_at) / Fold change /veh TMPRSS4 (11748680_a_at) / RFU FAM212B (11763350_a_at) / Fold change /veh FAM212B (11763350_a_at) / RFU PLEKHG5 (11743358_a_at) / Fold change /veh PLEKHG5 (11743358_a_at) / RFU ZSCAN30 (11745921_a_at) / Fold change /veh ZSCAN30 (11745921_a_at) / RFU CMKLR1 (11741424_a_at) / Fold change /veh CMKLR1 (11741424_a_at) / RFU LOC101060620 /// MAPK8IP1 (11723275_at) / Fold change /veh LOC101060620 /// MAPK8IP1 (11723275_at) / RFU SPTSSB (11747773_x_at) / Fold change /veh SPTSSB (11747773_x_at) / RFU PRSS12 (11739890_at) / Fold change /veh PRSS12 (11739890_at) / RFU BIN1 (11741810_x_at) / Fold change /veh BIN1 (11741810_x_at) / RFU WNT11 (11732464_a_at) / Fold change /veh WNT11 (11732464_a_at) / RFU C10orf10 (11716521_a_at) / Fold change /veh C10orf10 (11716521_a_at) / RFU C5orf56 (11738089_at) / Fold change /veh C5orf56 (11738089_at) / RFU CYB561 (11721691_x_at) / Fold change /veh CYB561 (11721691_x_at) / RFU ANKRD19P (11752326_a_at) / Fold change /veh ANKRD19P (11752326_a_at) / RFU OR2T12 /// OR2T33 /// OR2T8 (11738714_s_at) / Fold change /veh OR2T12 /// OR2T33 /// OR2T8 (11738714_s_at) / RFU VCAN (11748164_a_at) / Fold change /veh VCAN (11748164_a_at) / RFU JSRP1 (11732532_at) / Fold change /veh JSRP1 (11732532_at) / RFU KRTAP10-11 (11738290_x_at) / Fold change /veh KRTAP10-11 (11738290_x_at) / RFU MYO3A (11730013_a_at) / Fold change /veh MYO3A (11730013_a_at) / RFU EBF3 (11725865_a_at) / Fold change /veh EBF3 (11725865_a_at) / RFU CAMK2N1 (11719241_x_at) / Fold change /veh CAMK2N1 (11719241_x_at) / RFU C5orf56 (11738088_a_at) / Fold change /veh C5orf56 (11738088_a_at) / RFU OLFML3 (11715873_a_at) / Fold change /veh OLFML3 (11715873_a_at) / RFU LOC100653217 /// NTM (11731650_a_at) / Fold change /veh LOC100653217 /// NTM (11731650_a_at) / RFU MAPK11 (11762145_a_at) / Fold change /veh MAPK11 (11762145_a_at) / RFU FIZ1 (11724087_x_at) / Fold change /veh FIZ1 (11724087_x_at) / RFU OASL (11726364_x_at) / Fold change /veh OASL (11726364_x_at) / RFU SOX15 (11748057_x_at) / Fold change /veh SOX15 (11748057_x_at) / RFU CD79A (11719716_a_at) / Fold change /veh CD79A (11719716_a_at) / RFU HIST1H1D (11736915_at) / Fold change /veh HIST1H1D (11736915_at) / RFU CASKIN2 (11723855_a_at) / Fold change /veh CASKIN2 (11723855_a_at) / RFU LOC730098 (11760151_x_at) / Fold change /veh LOC730098 (11760151_x_at) / RFU OR4N2 (11742367_at) / Fold change /veh OR4N2 (11742367_at) / RFU PRRT2 (11749266_a_at) / Fold change /veh PRRT2 (11749266_a_at) / RFU SNX32 (11753110_a_at) / Fold change /veh SNX32 (11753110_a_at) / RFU CDHR5 (11726645_a_at) / Fold change /veh CDHR5 (11726645_a_at) / RFU RCAN1 (11760418_a_at) / Fold change /veh RCAN1 (11760418_a_at) / RFU FAM167A (11723789_a_at) / Fold change /veh FAM167A (11723789_a_at) / RFU FAM26E (11764081_at) / Fold change /veh FAM26E (11764081_at) / RFU ISYNA1 (11749810_s_at) / Fold change /veh ISYNA1 (11749810_s_at) / RFU ACY1 (11761880_at) / Fold change /veh ACY1 (11761880_at) / RFU 11764098_at / Fold change /veh 11764098_at / RFU SAMD14 (11745864_x_at) / Fold change /veh SAMD14 (11745864_x_at) / RFU NPB (11741838_a_at) / Fold change /veh NPB (11741838_a_at) / RFU TMPRSS6 (11731388_a_at) / Fold change /veh TMPRSS6 (11731388_a_at) / RFU KRTAP10-2 (11738614_at) / Fold change /veh KRTAP10-2 (11738614_at) / RFU ARHGAP8 /// PRR5-ARHGAP8 (11727945_x_at) / Fold change /veh ARHGAP8 /// PRR5-ARHGAP8 (11727945_x_at) / RFU KRTAP5-7 /// NADSYN1 (11734609_at) / Fold change /veh KRTAP5-7 /// NADSYN1 (11734609_at) / RFU RASL12 (11751679_a_at) / Fold change /veh RASL12 (11751679_a_at) / RFU CDKN2B (11736163_a_at) / Fold change /veh CDKN2B (11736163_a_at) / RFU PRF1 (11729649_at) / Fold change /veh PRF1 (11729649_at) / RFU, ZNF638 /// ZNF638-IT1 / Fold change vs veh, ZNF638 /// ZNF638-IT1 / RFU, PANK3 / Fold change vs veh, PANK3 / RFU, SH3YL1 / Fold change vs veh, SH3YL1 / RFU, ZEB2 / Fold change vs veh, ZEB2 / RFU, NRIP1 / Fold change vs veh, NRIP1 / RFU, PTTG1IP / Fold change vs veh, PTTG1IP / RFU, CAPN2 / Fold change vs veh, CAPN2 / RFU, MED14 / Fold change vs veh, MED14 / RFU, SNORA58 / Fold change vs veh, SNORA58 / RFU, C1orf63 / Fold change vs veh, C1orf63 / RFU, LRRFIP1 / Fold change vs veh, LRRFIP1 / RFU, NDUFAF7 / Fold change vs veh, NDUFAF7 / RFU, SLC12A2 / Fold change vs veh, SLC12A2 / RFU, IBTK / Fold change vs veh, IBTK / RFU, ESF1 / Fold change vs veh, ESF1 / Fold change vs veh, TMEM50B / RFU, TAOK1 / Fold change vs veh, TAOK1 / RFU, ACBD3 / Fold change vs veh, ACBD3 / RFU, TMA16 / Fold change vs veh, TMA16 / RFU, RWDD3 / Fold change vs veh, RWDD3 / RFU, BCAT1 / Fold change vs veh, BCAT1 / RFU, EDEM3 / Fold change vs veh, EDEM3 / RFU, TMEM33 / Fold change vs veh, TMEM33 / RFU, WDR75 / Fold change vs veh, WDR75 / RFU, AHCTF1 / Fold change vs veh, AHCTF1 / RFU, TFRC / Fold change vs veh, TFRC / RFU, ZDHHC17 / Fold change vs veh, ZDHHC17 / RFU, NOM1 / Fold change vs veh, NOM1 / RFU, ARL8B / Fold change vs veh, ARL8B / RFU, ZBTB11 / Fold change vs veh, ZBTB11 / RFU, TAMM41 / Fold change vs veh, TAMM41 / RFU, KIAA1704 /// LOC100996395 / Fold change vs veh, KIAA1704 /// LOC100996395 / RFU, ING1 / Fold change vs veh, ING1 / RFU, TRMT61B / Fold change vs veh, TRMT61B / RFU, FUBP3 / Fold change vs veh, FUBP3 / RFU, TP53 / Fold change vs veh, TP53 / RFU, TNKS2 / Fold change vs veh, TNKS2 / RFU, ZFP14 / Fold change vs veh, ZFP14 / RFU, ACTR2 / Fold change vs veh, ACTR2 / RFU, PPP3R1 / Fold change vs veh, PPP3R1 / RFU, PIK3R1 / Fold change vs veh, PIK3R1 / RFU, HNRNPA1 / Fold change vs veh, HNRNPA1 / RFU, RNF170 / Fold change vs veh, RNF170 / RFU, ZNF28 / Fold change vs veh, ZNF28 / RFU, RNGTT / Fold change vs veh, RNGTT / RFU, OGT / Fold change vs veh, OGT / RFU, BRD1 / Fold change vs veh, BRD1 / RFU, MARS / Fold change vs veh, MARS / RFU, ZNF655 / Fold change vs veh, ZNF655 / RFU, FAHD1 / Fold change vs veh, FAHD1 / RFU, BDP1 / Fold change vs veh, BDP1 / RFU, LRRCC1 / Fold change vs veh, LRRCC1 / RFU, ARID1A / Fold change vs veh, ARID1A / RFU, ZNF146 / Fold change vs veh, ZNF146 / RFU, ZNF330 / Fold change vs veh, ZNF330 / RFU, GPN3 / Fold change vs veh, GPN3 / RFU, C9orf123 / Fold change vs veh, C9orf123 / RFU, N4BP2L2 / Fold change vs veh, N4BP2L2 / RFU, ARFIP1 / Fold change vs veh, ARFIP1 / RFU, FAM179B / Fold change vs veh, FAM179B / RFU, BCL10 / Fold change vs veh, BCL10 / RFU, UHRF1BP1L / Fold change vs veh, UHRF1BP1L / RFU, BET1 / Fold change vs veh, BET1 / RFU, CNOT2 / Fold change vs veh, CNOT2 / RFU, ZNF268 / Fold change vs veh, ZNF268 / Fold change vs veh, ZNF507 / RFU, DGCR2 / Fold change vs veh, DGCR2 / RFU, WDSUB1 / Fold change vs veh, WDSUB1 / Fold change vs veh, HSP90B1 /// MIR3652 / RFU, ADSS / Fold change vs veh, ADSS / RFU, GK / Fold change vs veh, GK / RFU, ZNF148 / Fold change vs veh, ZNF148 / RFU, TAF9 / Fold change vs veh, TAF9 / RFU, SLC1A5 / Fold change vs veh, SLC1A5 / RFU, SLMO2 / Fold change vs veh, SLMO2 / RFU, ABCC4 / Fold change vs veh, ABCC4 / RFU, LOC101060439 /// RAP1B / Fold change vs veh, LOC101060439 /// RAP1B / RFU, RFX7 / Fold change vs veh, RFX7 / RFU, GTPBP10 / Fold change vs veh, GTPBP10 / RFU, CNEP1R1 / Fold change vs veh, CNEP1R1 / RFU, BIVM-ERCC5 /// ERCC5 / Fold change vs veh, BIVM-ERCC5 /// ERCC5 / RFU, ILF3 / Fold change vs veh, ILF3 / RFU 11762660_at / Fold change /veh 11762660_at / RFU VCAN (11757783_s_at) / Fold change /veh VCAN (11757783_s_at) / RFU DDX43 (11728927_at) / Fold change /veh DDX43 (11728927_at) / RFU KRT8 (11758188_x_at) / Fold change /veh KRT8 (11758188_x_at) / RFU NKD1 (11759106_at) / Fold change /veh NKD1 (11759106_at) / RFU SRD5A1 (11742802_a_at) / Fold change /veh SRD5A1 (11742802_a_at) / RFU TPSAB1 /// TPSB2 (11721975_s_at) / Fold change /veh TPSAB1 /// TPSB2 (11721975_s_at) / RFU GSTM3 (11746129_a_at) / Fold change /veh GSTM3 (11746129_a_at) / RFU IL23R (11737362_x_at) / Fold change /veh IL23R (11737362_x_at) / RFU TMEM51 (11727254_a_at) / Fold change /veh TMEM51 (11727254_a_at) / RFU PIWIL2 (11732686_x_at) / Fold change /veh PIWIL2 (11732686_x_at) / RFU ORM1 (11744905_x_at) / Fold change /veh ORM1 (11744905_x_at) / RFU CCDC152 (11743942_at) / Fold change /veh CCDC152 (11743942_at) / RFU ECM1 (11717891_a_at) / Fold change /veh ECM1 (11717891_a_at) / RFU IL23R (11748794_a_at) / Fold change /veh IL23R (11748794_a_at) / RFU TNFAIP8L3 (11732012_x_at) / Fold change /veh TNFAIP8L3 (11732012_x_at) / RFU MBOAT4 (11741988_at) / Fold change /veh MBOAT4 (11741988_at) / RFU 11764193_at / Fold change /veh 11764193_at / RFU TMEM53 (11763286_at) / Fold change /veh TMEM53 (11763286_at) / RFU MAGEB2 (11727129_at) / Fold change /veh MAGEB2 (11727129_at) / RFU TMEM200A (11744735_a_at) / Fold change /veh TMEM200A (11744735_a_at) / RFU CCDC152 (11751479_a_at) / Fold change /veh CCDC152 (11751479_a_at) / RFU FAM211A (11726209_a_at) / Fold change /veh FAM211A (11726209_a_at) / RFU RGS16 (11746705_a_at) / Fold change /veh RGS16 (11746705_a_at) / RFU VCAN (11755009_s_at) / Fold change /veh VCAN (11755009_s_at) / RFU RHOB (11743442_s_at) / Fold change /veh RHOB (11743442_s_at) / RFU RGS16 (11720943_a_at) / Fold change /veh RGS16 (11720943_a_at) / RFU RGS16 (11720944_at) / Fold change /veh RGS16 (11720944_at) / RFU, VPS4B / Fold change vs veh, VPS4B / RFU, CREB1 / Fold change vs veh, CREB1 / RFU, DNAJC13 / Fold change vs veh, DNAJC13 / RFU, GNAQ / Fold change vs veh, GNAQ / RFU, CDK5R1 / Fold change vs veh, CDK5R1 / RFU, ZRANB3 / Fold change vs veh, ZRANB3 / RFU, CUL4A / Fold change vs veh, CUL4A / RFU, CCNY / Fold change vs veh, CCNY / RFU, UFL1 / Fold change vs veh, UFL1 / RFU, COG3 / Fold change vs veh, COG3 / RFU, DIAPH2 / Fold change vs veh, DIAPH2 / RFU, SKA2 / Fold change vs veh, SKA2 / RFU, AFF3 / Fold change vs veh, AFF3 / RFU, LMF1 / Fold change vs veh, LMF1 / RFU, IPO11 / Fold change vs veh, IPO11 / RFU, DFFB / Fold change vs veh, DFFB / RFU, FOXP1 / Fold change vs veh, FOXP1 / RFU, CARD8 / Fold change vs veh, CARD8 / RFU, STRN3 / Fold change vs veh, STRN3 / RFU, ADK / Fold change vs veh, ADK / RFU, RASSF2 / Fold change vs veh, RASSF2 / RFU, WIPF1 / Fold change vs veh, WIPF1 / RFU, LARP1B / Fold change vs veh, LARP1B / RFU, RASA1 / Fold change vs veh, RASA1 / RFU, RB1 / Fold change vs veh, RB1 / RFU, PPFIA1 / Fold change vs veh, PPFIA1 / RFU, MAT2A / Fold change vs veh, MAT2A / RFU, CCT5 / Fold change vs veh, CCT5 / RFU, WDR92 / Fold change vs veh, WDR92 / RFU, CUX1 / Fold change vs veh, CUX1 / RFU, TTC7A / Fold change vs veh, TTC7A / RFU, TMEM135 / Fold change vs veh, TMEM135 / RFU, DEPTOR / Fold change vs veh, DEPTOR / RFU, CPM / Fold change vs veh, CPM / RFU, DNAJB6 / Fold change vs veh, DNAJB6 / RFU, CACNA2D3 / Fold change vs veh, CACNA2D3 / RFU, DTX4 / Fold change vs veh, DTX4 / RFU, TFCP2 / Fold change vs veh, TFCP2 / RFU, GMCL1 /// GMCL1P1 / Fold change vs veh, GMCL1 /// GMCL1P1 / RFU, AEBP2 / Fold change vs veh, AEBP2 / RFU, SNHG1 /// SNORD22 /// SNORD25 /// SNORD26 /// SNORD27 /// SNORD28 /// SNORD29 /// SNORD31 / Fold change vs veh, SNHG1 /// SNORD22 /// SNORD25 /// SNORD26 /// SNORD27 /// SNORD28 /// SNORD29 /// SNORD31 / Fold change (Aza/veh), C12orf56 (ProbeSet 11735607_a_at) / Fold change (ACY-1035/veh), C12orf56 (ProbeSet 11735607_a_at) / Fold change (Aza/veh), FGFR1OP (ProbeSet 11751329_s_at) / Fold change (ACY-1035/veh), FGFR1OP (ProbeSet 11751329_s_at) / Fold change (Aza/veh), VPS36 (ProbeSet 11739960_a_at) / Fold change (ACY-1035/veh), VPS36 (ProbeSet 11739960_a_at) / RFU SYPL1 (11715823_x_at) / Fold change /veh SYPL1 (11715823_x_at) / RFU IGFBP7 (11715501_s_at) / Fold change /veh IGFBP7 (11715501_s_at) / RFU REEP3 (11722064_at) / Fold change /veh REEP3 (11722064_at) / RFU IGLL1 (11728026_x_at) / Fold change /veh IGLL1 (11728026_x_at): dose or concentration left out as unconfirmed
# Settings: MV-4-11 cells, 48 hours
compound,measurement,value
Nc1ncn([C@@H]2O[C@H](CO)[C@@H](O)[C@H]2O)c(=O)n1 [azacitidine],RFU FAM174B (11720279_a_at),25.09 RFU
